One assay has as its target T1, ACOX1 (Homo sapiens, UniProt Q15067).
T1 construct: endogenous in cells
T1 sequence (Q15067 1-660): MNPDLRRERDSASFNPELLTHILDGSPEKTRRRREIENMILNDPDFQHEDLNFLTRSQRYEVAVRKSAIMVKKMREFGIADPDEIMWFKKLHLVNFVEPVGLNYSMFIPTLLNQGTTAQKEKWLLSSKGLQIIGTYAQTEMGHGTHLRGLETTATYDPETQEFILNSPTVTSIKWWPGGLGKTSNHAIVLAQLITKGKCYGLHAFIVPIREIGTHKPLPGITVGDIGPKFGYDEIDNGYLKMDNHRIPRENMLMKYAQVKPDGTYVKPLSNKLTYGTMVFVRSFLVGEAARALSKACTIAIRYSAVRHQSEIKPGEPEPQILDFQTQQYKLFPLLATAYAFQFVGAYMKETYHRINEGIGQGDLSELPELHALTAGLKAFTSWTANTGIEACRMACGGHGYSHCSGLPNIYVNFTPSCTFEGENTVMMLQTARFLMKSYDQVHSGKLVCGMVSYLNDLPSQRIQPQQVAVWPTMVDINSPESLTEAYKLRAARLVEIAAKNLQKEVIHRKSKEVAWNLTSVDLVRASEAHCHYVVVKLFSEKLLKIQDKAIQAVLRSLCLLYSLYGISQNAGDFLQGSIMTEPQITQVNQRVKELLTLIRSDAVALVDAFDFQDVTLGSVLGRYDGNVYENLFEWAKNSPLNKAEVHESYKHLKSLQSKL
Nature of the assay: Kinobeads two-dose competition binding: ACOX1.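 Note: competition of compounds with immobilized broad-spectrum kinase inhibitor beads in cell lysate at 100 and 1,000 nM, 45 min at 4 °C, bead-bound protein quantified by label-free MS versus DMSO.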 The note with it: sheet CATDS matrix 2; Gene Name ACOX1.

The next assay deals with T2, AAK1 (Homo sapiens, UniProt Q2M2I8).
T2 construct: to maximize the representation of endogenous proteins; endogenous in cells
T2 sequence (Q2M2I8 whole entry): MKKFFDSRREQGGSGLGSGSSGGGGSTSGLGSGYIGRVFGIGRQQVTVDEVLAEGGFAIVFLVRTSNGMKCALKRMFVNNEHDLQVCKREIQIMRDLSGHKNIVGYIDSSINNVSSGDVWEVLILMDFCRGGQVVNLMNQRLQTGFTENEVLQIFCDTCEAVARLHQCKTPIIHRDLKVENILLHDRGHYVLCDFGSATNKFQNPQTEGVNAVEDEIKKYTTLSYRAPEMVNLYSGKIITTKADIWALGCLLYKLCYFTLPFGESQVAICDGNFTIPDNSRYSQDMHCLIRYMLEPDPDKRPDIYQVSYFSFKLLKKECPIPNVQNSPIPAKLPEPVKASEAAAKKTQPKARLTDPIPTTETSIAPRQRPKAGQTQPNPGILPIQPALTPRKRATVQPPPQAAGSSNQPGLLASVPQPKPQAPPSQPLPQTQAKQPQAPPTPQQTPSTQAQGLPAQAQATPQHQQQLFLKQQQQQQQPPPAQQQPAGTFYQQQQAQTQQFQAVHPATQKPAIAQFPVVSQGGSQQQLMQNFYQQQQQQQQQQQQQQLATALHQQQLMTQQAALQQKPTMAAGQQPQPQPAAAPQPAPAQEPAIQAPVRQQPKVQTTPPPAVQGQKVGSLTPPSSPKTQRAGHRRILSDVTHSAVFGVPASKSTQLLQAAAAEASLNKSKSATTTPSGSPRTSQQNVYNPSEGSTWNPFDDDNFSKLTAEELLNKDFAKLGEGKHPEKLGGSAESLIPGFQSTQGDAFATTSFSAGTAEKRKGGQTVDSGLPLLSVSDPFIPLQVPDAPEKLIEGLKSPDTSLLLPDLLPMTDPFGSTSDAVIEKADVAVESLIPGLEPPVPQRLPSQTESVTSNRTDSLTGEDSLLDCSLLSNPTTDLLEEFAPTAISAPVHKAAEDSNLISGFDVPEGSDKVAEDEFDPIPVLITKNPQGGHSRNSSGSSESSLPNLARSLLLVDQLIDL
Nature of the assay: Kinobeads two-dose competition binding: AAK1.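 For all read-outs here: kinobeads competition pulldown from cell lysate, compound preincubated 45 min at 4 °C, bead-bound protein measured by label-free mass spectrometry against DMSO vehicle control.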 Particulars: for potency estimated from few doses: sheet "Kinobeads Drugmatrix - all", unit inferred, same values below 1000 recur in sheet "nanomolar", read-out: Kinobeads Drugmatrix - all: apparent Kd, AAK1; for CATDS: sheet CATDS matrix 2, Gene Name AAK1.

The target of the next assay is ABL1 (Homo sapiens, UniProt P00519). Nature of the assay: Kinobeads two-dose competition binding: ABL1. Particulars: sheet CATDS matrix 2; Gene Name ABL1.
Sequence of ABL1 (P00519 28-1130 limits assumed): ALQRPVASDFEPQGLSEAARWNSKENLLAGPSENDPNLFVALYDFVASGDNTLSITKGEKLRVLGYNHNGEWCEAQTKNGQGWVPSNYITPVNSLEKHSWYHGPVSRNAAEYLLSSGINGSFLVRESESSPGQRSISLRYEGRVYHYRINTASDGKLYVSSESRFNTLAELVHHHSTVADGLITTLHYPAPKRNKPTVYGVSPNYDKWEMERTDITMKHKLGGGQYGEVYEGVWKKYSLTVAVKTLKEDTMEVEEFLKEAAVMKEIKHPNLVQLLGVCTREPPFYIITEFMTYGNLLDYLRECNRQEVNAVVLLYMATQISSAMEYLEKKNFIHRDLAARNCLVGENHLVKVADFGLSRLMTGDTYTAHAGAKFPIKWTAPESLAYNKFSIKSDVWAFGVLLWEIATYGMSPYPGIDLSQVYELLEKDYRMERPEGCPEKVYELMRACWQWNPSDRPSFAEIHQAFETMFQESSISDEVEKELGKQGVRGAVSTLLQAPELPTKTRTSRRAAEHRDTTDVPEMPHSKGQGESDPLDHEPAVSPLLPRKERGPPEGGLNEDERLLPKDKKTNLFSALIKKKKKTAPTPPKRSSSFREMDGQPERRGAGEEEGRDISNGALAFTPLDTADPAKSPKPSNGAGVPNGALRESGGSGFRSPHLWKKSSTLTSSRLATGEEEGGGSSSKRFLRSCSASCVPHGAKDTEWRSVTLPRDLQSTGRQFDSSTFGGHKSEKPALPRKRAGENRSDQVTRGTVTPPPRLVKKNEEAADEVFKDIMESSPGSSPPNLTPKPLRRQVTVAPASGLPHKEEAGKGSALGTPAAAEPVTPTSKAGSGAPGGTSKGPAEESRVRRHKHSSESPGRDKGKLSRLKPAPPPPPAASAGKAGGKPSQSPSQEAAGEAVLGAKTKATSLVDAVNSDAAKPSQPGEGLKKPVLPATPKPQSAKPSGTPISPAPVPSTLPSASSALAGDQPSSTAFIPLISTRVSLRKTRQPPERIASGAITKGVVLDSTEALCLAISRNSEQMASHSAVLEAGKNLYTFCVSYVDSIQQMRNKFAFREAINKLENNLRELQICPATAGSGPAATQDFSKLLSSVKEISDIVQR
A further assay has as its target T3, ABL2 (Homo sapiens, UniProt P42684).
T3 construct: endogenous in cells
Nature of the assay: Kinobeads two-dose competition binding: ABL2. The note with it: sheet CATDS matrix 2; Gene Name ABL2.

In another assay the target is T4, ACAD11 (Homo sapiens, UniProt Q709F0).
T4 construct: endogenous in cells
T4 sequence (Q709F0 1-780): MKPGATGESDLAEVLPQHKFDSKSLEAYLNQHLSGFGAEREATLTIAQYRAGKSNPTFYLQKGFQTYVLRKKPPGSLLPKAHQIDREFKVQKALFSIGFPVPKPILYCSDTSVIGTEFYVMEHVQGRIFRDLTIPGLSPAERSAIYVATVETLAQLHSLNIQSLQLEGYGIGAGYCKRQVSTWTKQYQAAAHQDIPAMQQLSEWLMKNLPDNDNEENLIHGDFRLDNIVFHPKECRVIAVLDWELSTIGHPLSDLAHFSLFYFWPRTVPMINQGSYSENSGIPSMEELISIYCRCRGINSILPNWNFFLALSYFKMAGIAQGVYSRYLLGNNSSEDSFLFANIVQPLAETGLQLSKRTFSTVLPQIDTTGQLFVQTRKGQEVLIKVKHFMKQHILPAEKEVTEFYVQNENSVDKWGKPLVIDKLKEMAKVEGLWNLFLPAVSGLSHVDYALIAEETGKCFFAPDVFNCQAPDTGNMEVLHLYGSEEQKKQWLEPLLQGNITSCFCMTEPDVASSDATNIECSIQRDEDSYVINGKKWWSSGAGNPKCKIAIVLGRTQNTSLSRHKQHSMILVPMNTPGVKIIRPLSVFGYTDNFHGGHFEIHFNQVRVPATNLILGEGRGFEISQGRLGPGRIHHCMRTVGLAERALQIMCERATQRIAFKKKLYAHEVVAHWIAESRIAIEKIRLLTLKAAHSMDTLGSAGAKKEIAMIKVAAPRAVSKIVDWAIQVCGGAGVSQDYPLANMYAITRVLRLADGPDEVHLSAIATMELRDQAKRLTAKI
Nature of the assay: Kinobeads two-dose competition binding: ACAD11. Particulars: sheet CATDS matrix 2; Gene Name ACAD11.

Molecules are shown by their SMILES. Bounds are passed on as bounds.

T3 sequence (P42684 whole entry): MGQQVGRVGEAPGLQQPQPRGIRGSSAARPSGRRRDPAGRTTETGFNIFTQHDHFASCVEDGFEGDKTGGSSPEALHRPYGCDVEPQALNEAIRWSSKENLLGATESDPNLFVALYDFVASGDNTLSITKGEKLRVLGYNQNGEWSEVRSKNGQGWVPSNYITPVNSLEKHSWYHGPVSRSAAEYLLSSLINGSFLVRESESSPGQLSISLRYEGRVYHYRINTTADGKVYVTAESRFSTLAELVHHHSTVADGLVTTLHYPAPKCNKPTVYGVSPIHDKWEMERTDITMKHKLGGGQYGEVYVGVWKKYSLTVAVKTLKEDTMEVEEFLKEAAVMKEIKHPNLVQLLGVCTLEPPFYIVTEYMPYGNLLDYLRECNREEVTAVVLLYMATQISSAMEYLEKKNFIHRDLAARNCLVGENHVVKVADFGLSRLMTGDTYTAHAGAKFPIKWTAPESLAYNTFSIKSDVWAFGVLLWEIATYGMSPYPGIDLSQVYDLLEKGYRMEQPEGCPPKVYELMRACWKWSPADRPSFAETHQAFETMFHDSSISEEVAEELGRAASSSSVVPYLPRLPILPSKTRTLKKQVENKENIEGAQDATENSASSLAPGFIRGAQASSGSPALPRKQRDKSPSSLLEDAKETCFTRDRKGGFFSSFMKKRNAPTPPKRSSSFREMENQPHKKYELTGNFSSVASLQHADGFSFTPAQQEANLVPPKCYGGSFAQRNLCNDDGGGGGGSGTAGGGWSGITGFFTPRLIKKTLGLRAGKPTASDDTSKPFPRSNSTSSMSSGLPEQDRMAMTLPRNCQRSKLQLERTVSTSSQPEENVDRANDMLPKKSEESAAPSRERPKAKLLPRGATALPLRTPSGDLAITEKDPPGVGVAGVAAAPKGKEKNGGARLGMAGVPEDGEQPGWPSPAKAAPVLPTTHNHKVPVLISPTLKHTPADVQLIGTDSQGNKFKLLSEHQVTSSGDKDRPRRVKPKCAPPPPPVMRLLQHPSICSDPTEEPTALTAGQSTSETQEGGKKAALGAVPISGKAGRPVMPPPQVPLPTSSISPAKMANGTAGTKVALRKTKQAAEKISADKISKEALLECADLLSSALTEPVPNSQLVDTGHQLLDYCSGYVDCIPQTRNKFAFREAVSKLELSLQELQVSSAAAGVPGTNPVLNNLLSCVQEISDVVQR

`NCC(NC(=O)c1cc(-c2ccnc3[nH]ccc23)cs1)c1ccccc1` (stereo not shown) [GSK1229959A]: the CATDS on ACOX1 came to 0; at AAK1 it was 0.03638; on ABL1, 0; at ABL2, 0; at ACAD11 it was 0. Also, the potency estimated from few doses at AAK1 was 0.0796 µM.

Consider `NCCCC(NC(=O)c1cc(Br)c(-c2ccnc3[nH]ccc23)s1)c1ccccc1` (stereo not shown) [GSK1287544A], for which the CATDS on ACOX1, at AAK1, at ABL1, at ABL2 and on ACAD11 was 0 in each case.

As to `Cc1cccc(Nc2nc(NCCN)ncc2C(N)=O)c1` [GSK1292139B], the CATDS at ACOX1 is reported as 0; on AAK1, 0.21; on ABL1 it was 0; on ABL2, 0; at ACAD11, 0. At AAK1, the potency estimated from few doses was 0.164 µM.

Take `NCCC(NC(=O)c1cc(Br)c(-c2ccnc3[nH]ccc23)s1)c1ccccc1` (stereo not shown) [GSK1307810A]: the CATDS on ACOX1, on AAK1, at ABL1, at ABL2 and on ACAD11 was 0 throughout.

Regarding `NCC(NCc1ccc(-c2ccnc3[nH]ccc23)s1)c1ccccc1` (stereo not shown) [GSK1321565A], the CATDS at ACOX1 is 0; on AAK1, 0.2016; on ABL1 it was 0; on ABL2, 0; at ACAD11 it was 0. The potency estimated from few doses at AAK1 was 0.82 µM.

Take `NC(CNC(=O)c1cc(Br)c(-c2ccnc3[nH]ccc23)s1)c1ccccc1` (stereo not shown) [GSK1322949A]: the CATDS on ACOX1, at AAK1, at ABL1, at ABL2 and on ACAD11 was 0 throughout. In addition, the potency estimated from few doses at AAK1 is over 1 µM.

In the case of `NCC(NC(=O)c1cc(-c2cccnc2)c(-c2ccnc3[nH]ccc23)s1)c1ccccc1` (stereo not shown) [GSK1323434A], the CATDS at ACOX1, on AAK1, at ABL1, on ABL2 and at ACAD11 was 0 in each case.

For `NCC(NC(=O)c1cc(-c2cn[nH]c2)c(-c2ccnc3[nH]ccc23)s1)c1ccccc1` (stereo not shown) [GSK1325775A], the CATDS on ACOX1, on AAK1, at ABL1, on ABL2 and on ACAD11 was 0 throughout. Besides, the potency estimated from few doses on AAK1 was over 1 µM.

For `O=C(Nc1c(F)cccc1F)c1cc(C(=O)c2ccccc2F)c[nH]1` [GSK1326180A], the CATDS on ACOX1, at AAK1, on ABL1, on ABL2 and at ACAD11 was 0 in each case.

With `CCCN1CCC(c2ccc(Nc3nc(Nc4cc(F)ccc4C(N)=O)c4cc[nH]c4n3)c(OC)c2)CC1` [GSK1326255A], the CATDS on ACOX1, at AAK1, at ABL1, at ABL2 and on ACAD11 was 0 throughout.

With `N#Cc1cccc(C(=O)NC2CCN(c3ccnc(Nc4ccc(F)cc4)n3)C2)c1` (stereo not shown) [GSK1379708A], the CATDS at ACOX1, at AAK1, on ABL1, on ABL2 and at ACAD11 was 0 each time.

On to `CC(=O)c1cccc(NC(=O)NC2CCN(c3ccnc(Nc4ccc(F)cc4)n3)C2)c1` (stereo not shown) [GSK1379710A], for which the CATDS at ACOX1, on AAK1, on ABL1, at ABL2 and at ACAD11 was 0 each time.

Turning to `COC(=O)C(NC(=O)NC1CCN(c2ccnc(Nc3ccc(F)cc3)n2)C1)c1ccccc1` (stereo not shown) [GSK1379712_KCGS], the CATDS at ACOX1, on AAK1, on ABL1, on ABL2 and on ACAD11 was 0 throughout.

Turning to `CC(C(=O)NC1CCN(c2ccnc(Nc3ccc(F)cc3)n2)C1)c1ccc(Cl)cc1` (stereo not shown) [GSK1379713A], the CATDS at ACOX1, on AAK1, on ABL1, at ABL2 and at ACAD11 was 0 each time.

In the case of `Cc1ccc(C)c(NC(=O)NC2CCN(c3ccnc(Nc4ccc(F)cc4)n3)C2)c1` (stereo not shown) [GSK1379720A], the CATDS on ACOX1, at AAK1, at ABL1, at ABL2 and at ACAD11 was 0 each time.

On to `O=C(Nc1ccccc1F)NC1CCN(c2ccnc(Nc3ccc(F)cc3)n2)C1` (stereo not shown) [GSK1379722A], for which the CATDS on ACOX1, at AAK1, on ABL1, at ABL2 and at ACAD11 was 0 in each case.

`COc1ccc(Nc2nccc(N3CCC(NC(=O)c4cccc(C#N)c4)C3)n2)cc1` (stereo not shown) [GSK1379730A]: the CATDS on ACOX1, on AAK1, at ABL1, on ABL2 and on ACAD11 was 0 throughout.

Consider `COc1ccc(Nc2nccc(N3CCC(NC(=O)c4cccc(NC(C)=O)c4)C3)n2)cc1` (stereo not shown) [GSK1379732A], for which the CATDS at ACOX1, on AAK1, at ABL1, at ABL2 and on ACAD11 was 0 in each case.

Take `COc1ccc(Nc2nccc(N3CCC(NC(=O)C(C)c4ccc(Cl)cc4)C3)n2)cc1` (stereo not shown) [GSK1379735A]: the CATDS at ACOX1, at AAK1, at ABL1, at ABL2 and at ACAD11 was 0 throughout.

`CCCc1ccc(S(=O)(=O)NC2CCN(c3ccnc(Nc4ccc(OC)cc4)n3)C2)cc1` (stereo not shown) [GSK1379737A]: the CATDS at ACOX1, at AAK1, at ABL1, on ABL2 and on ACAD11 was 0 in each case.

As to `COc1ccc(Nc2nccc(N3CCC(NC(=O)c4cc5ccccc5s4)C3)n2)cc1` (stereo not shown) [GSK1379738A], the CATDS on ACOX1, at AAK1, on ABL1, at ABL2 and on ACAD11 was 0 in each case.

In the case of `COc1cc(Nc2nccc(N3CCC(NC(=O)c4cccc(C#N)c4)C3)n2)cc(OC)c1OC` (stereo not shown) [GSK1379751A], the CATDS at ACOX1 worked out at 0; at AAK1, 0.2095; on ABL1 it was 0; at ABL2, 0; on ACAD11 it was 0. Further, the potency estimated from few doses at AAK1 was 0.786 µM.

For the compound `COc1cc(Nc2nccc(N3CCC(NC(=O)Nc4cccc(C(C)=O)c4)C3)n2)cc(OC)c1OC` (stereo not shown) [GSK1379753A], the CATDS at ACOX1, on AAK1, at ABL1, at ABL2 and at ACAD11 was 0 each time.

(Values after paper PMC11062922 (Nature Chemical Biology, 2023).)
